Laboratory results from patent publication US20250369954A1, “PLATFORM AND METHOD TO CO[…] FUN[…] CARD[…] OTHER CELLS ON BOTH SIDES OF A POROUS MEMBRANE” (Government of the United States of America, as represented …, priority 2024, published 2025).

Test system: hiPSC-CM cells
Assay: Impedance measurement of cardiomyocyte beating on the microfluidic device
Type: cell-based, human
Settings: 1 μM verapamil, after 10 minutes of treatment, hiPSC-CM on porous membrane
Experimental: In one embodiment, human induced pluripotent stem cell-derived cardiomyocytes (hiPSC-CM) were cultured directly on the PET membrane of the microfluidic device.
Cells in this example were trapped in the region of interest within the device using dielectrophoretic cell capture, directing cells from the microfluidic channel to the electrode. In this example, the entire electrode was covered with cells in increasing density from around 1 to 3 minutes. The following parameters for dielectrophoresis were used in this example: 4-6 Vpp, 12 MHz, […] μl min-1.
In one embodiment, hiPSC-CM cells are captured on one side of the porous membrane as in Example 1. The cardiomyocytes are treated with 1 μM verapamil, a Ca^2+ channel blocker used for treating arrhythmia.

COc1ccc(CCN(C)CCCC(C#N)(c2ccc(OC)c(OC)c2)C(C)C)cc1OC (stereo not shown) [verapamil]
effect on cardiomyocyte beating (change in impedance): cessation of cardiomyocyte beating
